Converted amounts (≈) assume the structure as drawn.
Key:
[1] = system: rhinovirus B14; experiment: Antiviral activity against Human rhinovirus 14 infected in HeLa […] cells after 2 days by XTT/PMS assay; type: functional, organism-based; conditions: Rhinovirus B, 48 h
[2] = Half life in human plasma at 25 uM after 1 to 3 hrs by reversed-phase HPLC; type: ADME, cell-free
[3] = Thermodynamic aqueous solubility of compound in pH 7 buffer at 1 to 2 mg after 4 hrs by HPLC analysis; type: physicochemical; conditions: read-out: Therm_solubility
[4] = Stability in human liver microsomes assessed as compound metabolized at 25 uM after 30 mins in presence of NADPH by HPLC analysis; type: ADME, Microsome; conditions: read-out: Drug metabolism
[5] = biological target: T1, Dihydropyrimidine dehydrogenase [NADP(+)] (Bos taurus) (UniProt Q28007); experiment: Inactivation of bovine liver DHPDHase assessed as Kinact in presence of NADPH
T1 sequence (whole entry): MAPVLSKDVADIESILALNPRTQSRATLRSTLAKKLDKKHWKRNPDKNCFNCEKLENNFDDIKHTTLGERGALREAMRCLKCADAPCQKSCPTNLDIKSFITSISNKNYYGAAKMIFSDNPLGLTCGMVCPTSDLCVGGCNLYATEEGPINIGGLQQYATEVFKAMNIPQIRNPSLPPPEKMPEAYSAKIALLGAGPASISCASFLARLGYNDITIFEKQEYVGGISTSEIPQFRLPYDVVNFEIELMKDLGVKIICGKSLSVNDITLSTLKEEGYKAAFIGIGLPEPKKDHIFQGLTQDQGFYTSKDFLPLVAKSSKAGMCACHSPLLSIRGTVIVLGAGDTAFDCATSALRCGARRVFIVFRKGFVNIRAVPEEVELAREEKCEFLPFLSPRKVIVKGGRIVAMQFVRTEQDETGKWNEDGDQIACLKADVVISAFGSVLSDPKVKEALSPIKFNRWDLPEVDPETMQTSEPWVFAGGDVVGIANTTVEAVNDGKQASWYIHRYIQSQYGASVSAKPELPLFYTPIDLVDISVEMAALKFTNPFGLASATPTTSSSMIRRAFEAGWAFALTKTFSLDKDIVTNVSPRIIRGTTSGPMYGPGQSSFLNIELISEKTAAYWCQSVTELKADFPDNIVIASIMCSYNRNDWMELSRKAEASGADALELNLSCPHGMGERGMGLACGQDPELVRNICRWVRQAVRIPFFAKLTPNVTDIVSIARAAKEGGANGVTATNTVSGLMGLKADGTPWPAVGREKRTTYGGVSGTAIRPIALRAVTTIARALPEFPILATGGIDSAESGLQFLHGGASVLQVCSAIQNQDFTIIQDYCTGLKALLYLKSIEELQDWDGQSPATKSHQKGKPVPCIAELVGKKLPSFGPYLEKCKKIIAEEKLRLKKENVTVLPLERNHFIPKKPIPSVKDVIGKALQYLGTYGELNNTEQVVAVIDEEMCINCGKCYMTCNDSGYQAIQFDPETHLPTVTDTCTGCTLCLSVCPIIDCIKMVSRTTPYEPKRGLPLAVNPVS

[6] = Substrate activity at UDP-glucuronosyltransferase in cynomolgus monkey microsomes assessed as Vmax; type: ADME, Macaca fascicularis
[7] = Plasma clearance in iv dosed cynomolgus monkey; type: ADME, organism-based, Macaca fascicularis
[8] = Half life in cynomolgus monkey; type: ADME, Macaca fascicularis; conditions: in vivo
[9] = system: Human immunodeficiency virus 1; experiment: Antiviral activity against HIV-1 3B infected in human MT4 cells incubated for 5 days by MTT assay; type: functional, organism-based; conditions: Human immunodeficiency virus 1, 3B, MT4, 120 h
[10] = Cytotoxicity against human MT4 cells; type: cell-based
[11] = Selectivity ratio of CC50 for human MT4 cells to IC50 for HIV-1 3B; type: toxicity; conditions: read-out: Ratio CC50/IC50
[12] = system: Human immunodeficiency virus 1; experiment: Antiviral activity against HIV1 3B infected in human MT2 cells; type: functional, organism-based; conditions: Human immunodeficiency virus 1, 3B
[13] = Cytotoxicity against human MT2 cells; type: cell-based
[14] = biological target: T2, Amine oxidase [flavin-containing] A (Homo sapiens, UniProt P21397); experiment: Inhibition of human MAO-A using Tyramine hydrochloride as substrate preincubated for 30 mins followed by substrate addition and measured for 1 hr by fluorometric method
T2 sequence (P21397 whole entry): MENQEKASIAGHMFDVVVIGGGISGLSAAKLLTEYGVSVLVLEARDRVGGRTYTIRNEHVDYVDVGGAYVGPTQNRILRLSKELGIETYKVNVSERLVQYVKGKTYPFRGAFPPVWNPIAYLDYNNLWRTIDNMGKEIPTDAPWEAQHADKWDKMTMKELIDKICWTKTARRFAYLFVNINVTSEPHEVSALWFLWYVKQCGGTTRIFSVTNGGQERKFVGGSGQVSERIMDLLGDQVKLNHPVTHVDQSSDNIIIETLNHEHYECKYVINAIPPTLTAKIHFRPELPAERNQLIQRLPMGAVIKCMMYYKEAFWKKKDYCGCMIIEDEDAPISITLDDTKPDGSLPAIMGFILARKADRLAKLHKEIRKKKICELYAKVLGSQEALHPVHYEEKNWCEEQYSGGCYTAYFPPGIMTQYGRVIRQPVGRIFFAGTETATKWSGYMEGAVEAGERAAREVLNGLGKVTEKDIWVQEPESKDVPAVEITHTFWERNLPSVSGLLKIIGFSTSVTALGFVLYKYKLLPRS

[15] = system: Poliovirus 1; experiment: Antiviral activity against Poliovirus type 1 Mahoney infected in African green monkey BSC1 cells by crystal violet staining based plaque reduction assay; type: functional, organism-based; conditions: Enterovirus C, BSC-1
[16] = Cmax in rhesus monkey at 8 mg/kg, po; type: ADME, organism-based, Macaca mulatta; design: dose 8 mg/kg, route oral; conditions: in vivo
[17] = Inactivation of CYP2B1 (unknown origin); design: species or system Homo sapiens
[18] = species on record: Homo sapiens; experiment: Inactivation of CYP2B1 (unknown origin) assessed as Kinact
[19] = biological target: T3, Thymidine kinase, cytosolic (Homo sapiens, UniProt P04183); experiment: (§1) Substrate activity at human thymidine kinase 1 assessed as Km incubated for 24 hrs; type: ADME
T3 sequence (P04183 whole entry): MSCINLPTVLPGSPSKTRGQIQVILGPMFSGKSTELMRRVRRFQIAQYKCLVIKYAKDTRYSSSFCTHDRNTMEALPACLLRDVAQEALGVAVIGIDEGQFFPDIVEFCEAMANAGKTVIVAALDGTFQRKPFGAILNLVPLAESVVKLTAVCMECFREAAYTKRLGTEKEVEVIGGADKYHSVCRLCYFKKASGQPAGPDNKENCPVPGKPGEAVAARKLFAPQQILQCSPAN

[20] = biological target: T2, Amine oxidase [flavin-containing] A; experiment: Inhibition of human MAO-A
[21] = biological target: Acetylcholinesterase (Homo sapiens, UniProt P22303); experiment: Inhibition of acetylcholinesterase (unknown origin)
[22] = biological target: Cholinesterase (Homo sapiens, UniProt P06276); experiment: Inhibition of butyrylcholinesterase (unknown origin)
[23] = system: Human rhinovirus sp.; experiment: Antiviral activity against Human rhinovirus; type: functional, organism-based
[24] = substrate: C#C[C@@]1(CO)C=C[C@H](n2cc(C)c(=O)[nH]c2=O)O1; experiment: as §1; type: ADME

Sequence of Acetylcholinesterase (P22303 whole entry): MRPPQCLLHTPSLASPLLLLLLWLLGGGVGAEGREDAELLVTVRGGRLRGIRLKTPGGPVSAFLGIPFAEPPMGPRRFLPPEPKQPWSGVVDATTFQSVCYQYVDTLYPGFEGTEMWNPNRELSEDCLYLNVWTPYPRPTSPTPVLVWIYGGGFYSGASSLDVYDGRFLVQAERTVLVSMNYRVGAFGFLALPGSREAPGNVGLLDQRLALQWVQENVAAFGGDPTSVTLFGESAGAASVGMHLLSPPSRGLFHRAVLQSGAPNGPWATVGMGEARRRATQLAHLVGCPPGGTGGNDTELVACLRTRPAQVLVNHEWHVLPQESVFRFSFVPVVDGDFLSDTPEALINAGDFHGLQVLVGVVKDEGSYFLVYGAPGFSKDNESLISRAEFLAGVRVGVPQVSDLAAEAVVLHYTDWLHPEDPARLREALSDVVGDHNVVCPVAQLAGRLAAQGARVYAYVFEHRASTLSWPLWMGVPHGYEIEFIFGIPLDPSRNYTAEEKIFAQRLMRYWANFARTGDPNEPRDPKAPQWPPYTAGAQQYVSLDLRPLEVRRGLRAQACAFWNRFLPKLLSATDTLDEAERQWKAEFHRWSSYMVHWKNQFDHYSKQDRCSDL
Sequence of Cholinesterase (P06276 whole entry): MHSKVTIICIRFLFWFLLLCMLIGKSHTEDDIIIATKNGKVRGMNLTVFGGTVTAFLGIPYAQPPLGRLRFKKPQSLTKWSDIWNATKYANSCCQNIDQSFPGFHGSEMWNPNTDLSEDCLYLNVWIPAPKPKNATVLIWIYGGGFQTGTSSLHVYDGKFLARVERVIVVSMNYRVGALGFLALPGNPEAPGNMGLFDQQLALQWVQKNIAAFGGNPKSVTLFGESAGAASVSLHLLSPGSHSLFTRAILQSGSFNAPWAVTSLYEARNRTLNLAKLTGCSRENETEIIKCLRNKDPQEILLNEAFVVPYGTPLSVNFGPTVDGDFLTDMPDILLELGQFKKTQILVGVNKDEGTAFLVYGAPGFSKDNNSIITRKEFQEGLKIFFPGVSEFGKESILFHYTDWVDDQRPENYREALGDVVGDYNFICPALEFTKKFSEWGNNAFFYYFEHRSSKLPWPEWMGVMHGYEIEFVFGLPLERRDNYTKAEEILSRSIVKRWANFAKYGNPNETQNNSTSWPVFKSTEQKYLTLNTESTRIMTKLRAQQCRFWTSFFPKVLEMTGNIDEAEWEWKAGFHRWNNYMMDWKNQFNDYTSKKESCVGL

Molecule: CCOC(=O)/C=C/[C@H](CC1CCNC1=O)NC(=O)[C@H](Cc1ccc(F)c(F)c1)n1cccc(NC(=O)c2cc(C)on2)c1=O (stereo partly specified)
- EC50 [1]: 11 nM
- half-life at 25 µM [2]: 1.4 h
- solubility thermodynamic at 4 h [3]: 25 µg/mL (≈ 40.9 µM)
- metabolised at 0.5 h, 25 µM [4]: 81%

Molecule: O=c1[nH]cc(Br)c(=O)[nH]1
- Kinact [5]: 0.42 min⁻¹

Molecule: CC(C#Cc1cccc(Oc2ccc(F)cc2)c1)N(O)C(N)=O (stereo unspecified) [FENLEUTON]
- Vmax [6]: 0.05 nmol/min/mg
- clearance [7]: 1.3 mL/min/kg
- half-life [8]: 5.5 h

Molecule: C#C[C@]1(CO)O[C@@H](n2cnc3c(N)nc(F)nc32)C[C@@H]1O
- IC50 [9]: 0.3 nM
- CC50 [10]: 19200 nM
- selectivity ratio [11]: > 60000

Molecule: Cc1cn([C@H]2C=C[C@@](C#N)(CO)O2)c(=O)[nH]c1=O
- EC50 [12]: 7000 nM
- CC50 [13]: > 100000 nM

Molecule: Oc1ncc(/C=C/Br)c(O)n1
- Kinact [5]: 0.6 min⁻¹

Molecule: C#CCN(C)c1nc(NCCCCC2CCN(Cc3ccccc3)CC2)c(C#N)cc1C#N
- IC50 [14]: > 100 nM

Molecule: CC(c1cc2ccccc2s1)N(O)C(N)=O (stereo unspecified) [ZILEUTON]
- Vmax [6]: 1.2 nmol/min/mg
- clearance [7]: 14 mL/min/kg
- half-life [8]: 0.4 h

Molecule: CC#Cn1ccc(=O)[nH]c1=O
- Kinact [5]: 0.46 min⁻¹

Molecule: CC(C#Cc1ccc(Cc2ccc(F)cc2)s1)N(O)C(N)=O (stereo unspecified)
- half-life [8]: 14.5 h

Molecule: C/C=C(\c1ccccc1)c1ccc2nc(N)n(S(=O)(=O)C(C)C)c2c1
- IC50 [15]: 0.06 µg/mL (≈ 0.169 µM)
- Cmax [16]: 14 to 140 ng/mL

Molecule: CC(/C=C/c1cccc(Oc2ccc(F)cc2)c1)N(O)C(N)=O (stereo unspecified)
- Vmax [6]: 0.19 nmol/min/mg
- clearance [7]: 2 mL/min/kg
- half-life [8]: 4.7 h

Molecule: C#Cc1c[nH]c(=O)[nH]c1=O
- Kinact [5]: 5.64 min⁻¹

Molecule: [N-]=[N+]=C1C=NC(=O)NC1=O
- Kinact [5]: 1.68 min⁻¹

Molecule: C#CCN(C)[C@H](C)Cc1ccccc1 [SELEGILINE]
- Ki [17]: 1000 nM
- Kinact [18]: 0.23 min⁻¹

Molecule: N#Cc1cnc(O)nc1O
- Kinact [5]: 0.78 min⁻¹

Molecule: O=c1[nH]cc(C(F)(F)F)c(=O)[nH]1
- Kinact [5]: 0.23 min⁻¹

Molecule: Cc1cn([C@H]2C=C[C@@H](CO)O2)c(=O)[nH]c1=O [STAVUDINE]
- EC50 [12]: 1300 nM
- CC50 [13]: 98000 nM
- Km [19]: 133 µM

Molecule: C#CCN[C@@H]1CCc2ccc(OC(=O)N(C)CC)cc21 [LADOSTIGIL]
- IC50 [20]: > 100000 nM

Molecule: C#CCNCc1cc2cc(OCc3ccccc3)ccc2[nH]1
- IC50 [21]: > 100000 nM
- IC50 [22]: > 100000 nM

Molecule: C#C[C@@]1(CO)C=C[C@H](n2cc(C)c(=O)[nH]c2=O)O1 [CENSAVUDINE]
- EC50 [12]: 250 nM
- CC50 [13]: > 256000 nM

Molecule: C#CC[C@@H](C(=O)N[C@H](/C=C/C(=O)OCC)CC1CCNC1=O)n1cccc(NC(=O)c2cc(C)on2)c1=O (stereo partly specified)
- EC50 [23]: 58 nM
- half-life at 25 µM [2]: 6.6 h
- solubility thermodynamic at 4 h [3]: 377 µg/mL (≈ 720 µM)
- metabolised at 0.5 h, 25 µM [4]: 40%

Molecule: C#C/C=C(\c1ccccc1)c1ccc2nc(N)n(S(=O)(=O)C(C)C)c2c1
- IC50 [15]: 0.02 µg/mL (≈ 0.0547 µM)
- Cmax [16]: 70 to 300 ng/mL

B1: Thymidine kinase, cytosolic (Homo sapiens) (protein)
chain: MSCINLPTVLPGSPSKTRGQIQVILGPMFSGKSTELMRRVRRFQIAQYKCLVIKYAKDTRYSSSFCTHDRNTMEALPACLLRDVAQEALGVAVIGIDEGQFFPDIVEFCEAMANAGKTVIVAALDGTFQRKPFGAILNLVPLAESVVKLTAVCMECFREAAYTKRLGTEKEVEVIGGADKYHSVCRLCYFKKASGQPAGPDNKENCPVPGKPGEAVAARKLFAPQQILQCSPAN
- Km [24]: 53 µM
